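Assay format: 96-well plates, 48-hour exposure. The concentration for full growth arrest is given as TGI.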 Where only a bound is given, the exact number is not on record here.

Among the test systems are KM12 colon; MCF7 breast; MOLT-4 leukemia; HOP-62 NSCLC; PC-3 prostate; HOP-92 NSCLC; A498 renal; 786-0 renal; OVCAR-3 ovarian; M14 melanoma; OVCAR-4 ovarian; NCI-H460 lung; HS 578T breast; HCT-15 colon.
Common to all, as to assay: inhibition of tumour cell growth, NCI panel, 48 h

For `CSC(=S)Nc1cccc(C)n1`, the TGI in the assay with KM12 colon, in the assay on MCF7 breast, with MOLT-4 leukemia, with HOP-62 NSCLC, in the assay with PC-3 prostate and with HOP-92 NSCLC was over 100 µM in each case. The TGI in the assay with A498 renal, in the assay with 786-0 renal, with OVCAR-3 ovarian, in the assay with M14 melanoma, in the assay on OVCAR-4 ovarian and with NCI-H460 lung was over 100 µM each time. Also, the TGI with HS 578T breast and in the assay on HCT-15 colon was over 100 µM in each case.

Turning to `O=C(N/N=C/c1ccc([N+](=O)[O-])cc1)Nc1ccc(C(=O)O)cc1`, the TGI is over 100 µM in the assay with KM12 colon; over 100 µM in the assay on MCF7 breast; over 100 µM in the assay with MOLT-4 leukemia; 75 µM in the assay with HOP-62 NSCLC; over 100 µM in the assay with PC-3 prostate; 92.1 µM in the assay on HOP-92 NSCLC. The TGI was 65.1 µM in the assay on A498 renal; over 100 µM in the assay with 786-0 renal; 26 µM in the assay with OVCAR-3 ovarian; over 100 µM in the assay on M14 melanoma; over 100 µM in the assay with OVCAR-4 ovarian; over 100 µM in the assay on NCI-H460 lung. Besides, the TGI with HS 578T breast and with HCT-15 colon was over 100 µM each time.

On to `c1ccc2oc(-c3ccc(-c4nc5ccccc5o4)c4c3CC4)nc2c1`, for which the TGI in the assay with KM12 colon, in the assay on MCF7 breast, in the assay on MOLT-4 leukemia, with HOP-62 NSCLC, with PC-3 prostate and in the assay on HOP-92 NSCLC was over 100 µM each time. Moreover, the TGI with A498 renal, in the assay with 786-0 renal, in the assay with OVCAR-3 ovarian, in the assay on M14 melanoma, in the assay with OVCAR-4 ovarian and in the assay on NCI-H460 lung was over 100 µM throughout. For the same compound, the TGI with HS 578T breast and with HCT-15 colon was over 100 µM each time.

As for `CC(C)=CCN1CC(C)C(=O)Nc2ccccc21` (stereo not given), the TGI in the assay with KM12 colon, in the assay with MCF7 breast, in the assay with MOLT-4 leukemia, in the assay with HOP-62 NSCLC, with PC-3 prostate and with HOP-92 NSCLC was over 100 µM each time. Besides, the TGI with A498 renal, in the assay on 786-0 renal, with OVCAR-3 ovarian, with M14 melanoma, in the assay on OVCAR-4 ovarian and in the assay on NCI-H460 lung was over 100 µM each time. For the same compound, the TGI in the assay on HS 578T breast and with HCT-15 colon was over 100 µM throughout.

`O=[N+]([O-])/C(C(Cl)=C(Cl)Cl)=C(/Cl)SCc1ccccc1`: the TGI in the assay with KM12 colon came out at 34.6 µM; with MCF7 breast, 16 µM; in the assay with MOLT-4 leukemia it was 1.25 µM; with HOP-62 NSCLC, 30 µM; in the assay on PC-3 prostate it was 31.4 µM; in the assay on HOP-92 NSCLC, 9.01 µM. Further, the TGI turned out to be 40.8 µM in the assay on A498 renal; 3.09 µM with 786-0 renal; 12.1 µM in the assay on OVCAR-3 ovarian; 3.58 µM in the assay with M14 melanoma; 18.6 µM in the assay with OVCAR-4 ovarian; 31.2 µM in the assay on NCI-H460 lung. The TGI in the assay on HS 578T breast stood at 9.67 µM; in the assay with HCT-15 colon, 19.2 µM.

Turning to `COc1cc2c(c(O)c1OC)C(=O)[C@@H]1CCC(=O)N1C2`, the TGI in the assay on KM12 colon, in the assay with MCF7 breast, with MOLT-4 leukemia, with HOP-62 NSCLC, in the assay on PC-3 prostate and in the assay with HOP-92 NSCLC was over 100 µM throughout. In addition, the TGI with A498 renal, in the assay with 786-0 renal, in the assay on OVCAR-3 ovarian, with M14 melanoma, with OVCAR-4 ovarian and with NCI-H460 lung was over 100 µM each time. The TGI in the assay on HS 578T breast and in the assay on HCT-15 colon was over 100 µM each time.

As to `CCC1OC2C(CC=C(C)C)=C3OC(C)(O)C(C)(CC)C(OC(C)=O)C3=C3OC(=O)C=C1C32` (stereo not given), the TGI in the assay on KM12 colon is 50 µM; with MCF7 breast it was over 100 µM; in the assay with MOLT-4 leukemia it was 77.5 µM; in the assay with HOP-62 NSCLC, 60.1 µM; in the assay on PC-3 prostate, over 100 µM; in the assay with HOP-92 NSCLC it was over 100 µM. The TGI is over 100 µM in the assay on A498 renal; over 100 µM in the assay with 786-0 renal; over 100 µM with OVCAR-3 ovarian; over 100 µM in the assay on M14 melanoma; 70.5 µM in the assay with OVCAR-4 ovarian; 84.6 µM with NCI-H460 lung. In addition, the TGI in the assay with HS 578T breast and in the assay on HCT-15 colon was over 100 µM in each case.

With `CC1(C)OC(=S)N(c2ccccc2)C12C=Cc1ccccc1O2` (stereo not given), the TGI is over 100 µM in the assay with KM12 colon; over 100 µM in the assay on MCF7 breast; 76.5 µM with MOLT-4 leukemia; over 100 µM in the assay on HOP-62 NSCLC; over 100 µM with PC-3 prostate; over 100 µM in the assay with HOP-92 NSCLC. In addition, the TGI in the assay on A498 renal, with 786-0 renal, with OVCAR-3 ovarian, in the assay with M14 melanoma, with OVCAR-4 ovarian and with NCI-H460 lung was over 100 µM throughout. In addition, the TGI in the assay with HS 578T breast and in the assay on HCT-15 colon was over 100 µM throughout.

With `CC1(C)CC[C@]2(C)CC[C@]3(C)C(=CC[C@@H]4[C@@]5(C)CCC(=O)C(C)(C)[C@@H]5[C@H](O)C[C@]43C)[C@@H]2C1`, the TGI is 37.9 µM in the assay with KM12 colon; 35.1 µM in the assay with MCF7 breast; over 100 µM in the assay on MOLT-4 leukemia; 31.5 µM with HOP-62 NSCLC; 30.9 µM in the assay with PC-3 prostate; 31.7 µM in the assay with HOP-92 NSCLC. Moreover, the TGI with A498 renal worked out at 31 µM; in the assay with 786-0 renal, 30.9 µM; with OVCAR-3 ovarian it was 31 µM; in the assay on M14 melanoma, 40.7 µM; in the assay with OVCAR-4 ovarian, 34.7 µM; in the assay on NCI-H460 lung, 33.9 µM. Moreover, the TGI worked out at 36.8 µM in the assay with HS 578T breast and 39.3 µM in the assay with HCT-15 colon.

Regarding `COC(=O)c1cc2c(c3c1CC(Cc1ccccc1)C3=O)CCC2` (stereo not given), the TGI with KM12 colon is 41.8 µM; with MCF7 breast, over 100 µM; with MOLT-4 leukemia, over 100 µM; with HOP-62 NSCLC, over 100 µM; in the assay on PC-3 prostate, over 100 µM; with HOP-92 NSCLC, 78 µM. Also, the TGI with A498 renal, in the assay with 786-0 renal, in the assay with OVCAR-3 ovarian, with M14 melanoma, in the assay on OVCAR-4 ovarian and with NCI-H460 lung was over 100 µM in each case. For the same compound, the TGI with HS 578T breast and in the assay with HCT-15 colon was over 100 µM in each case.
